In PubChem BioAssay (NCI):
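Briefly, cells in 96-well plates were exposed to five compound concentrations for 48 h, and endpoints were estimated by linear interpolation. At the TGI there is no net growth.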

Key:
Experiment in all cases: NCI-60 cell line screen, 48 h
[1] = tested on: SW-620 colon
[2] = tested on: MDA-MB-435
[3] = tested on: PC-3 prostate
[4] = tested on: NCI/ADR-RES ovarian
[5] = tested on: RPMI-8226 leukemia
[6] = tested on: MDA-N
[7] = tested on: LOX IMVI melanoma
[8] = tested on: HT29 colon
[9] = tested on: OVCAR-5 ovarian
[10] = tested on: OVCAR-3 ovarian
[11] = tested on: OVCAR-4 ovarian
[12] = tested on: UO-31 renal
[13] = tested on: OVCAR-8 ovarian
[14] = tested on: ACHN renal
[15] = tested on: HCC-2998 colon
[16] = tested on: TK-10 renal
[17] = tested on: MALME-3M melanoma
[18] = tested on: MCF7 breast
[19] = tested on: SF-295 CNS
[20] = tested on: HS 578T breast
[21] = tested on: A549 NSCLC
[22] = tested on: KM12 colon
[23] = tested on: HCT-116 colon
[24] = tested on: SR leukemia
[25] = tested on: SNB-19 CNS
[26] = tested on: U251 CNS
[27] = tested on: SK-MEL-5 melanoma
[28] = tested on: HCT-15 colon
[29] = tested on: 786-0 renal
[30] = tested on: A498 renal
[31] = tested on: MDA-MB-231 breast
[32] = tested on: DU-145 prostate
[33] = tested on: BT-549 breast
[34] = tested on: M14 melanoma
[35] = tested on: K-562 leukemia
[36] = tested on: UACC-257 melanoma
[37] = tested on: HL-60(TB) leukemia
[38] = tested on: EKVX NSCLC
[39] = tested on: COLO 205 colon
[40] = tested on: NCI-H460 lung
[41] = tested on: NCI-H226 lung
[42] = tested on: SK-MEL-28 melanoma
[43] = tested on: SF-539 CNS
[44] = tested on: IGROV1 ovarian
[45] = tested on: HOP-92 NSCLC
[46] = tested on: HOP-62 NSCLC
[47] = tested on: NCI-H23 lung
[48] = tested on: SN12C renal
[49] = tested on: MOLT-4 leukemia
[50] = tested on: CAKI-1 renal
[51] = tested on: SK-MEL-2 melanoma
[52] = tested on: RXF 393 renal
[53] = tested on: NCI-H522 lung
[54] = tested on: SK-OV-3 ovarian
[55] = tested on: SNB-75 CNS
[56] = tested on: UACC-62 melanoma

Compound: CC(=O)Nc1ccc(NNc2cc(=O)n(C)c(=O)[nH]2)cc1
- TGI [1]: 7.56 µM
- TGI [2]: 22.3 µM
- TGI [3]: 12.3 µM
- TGI [4]: 43.8 µM
- TGI [5]: 9.69 µM
- TGI [6]: 23.7 µM
- TGI [7]: 5.72 µM
- TGI [8]: 4.71 µM
- TGI [9]: 27.1 µM
- TGI [10]: 6.52 µM
- TGI [11]: 21.9 µM
- TGI [12]: 31 µM
- TGI [13]: 45.1 µM
- TGI [14]: 11.4 µM
- TGI [15]: 24 µM
- TGI [16]: 39 µM
- TGI [17]: 25.2 µM
- TGI [18]: 19.5 µM
- TGI [19]: 29.3 µM
- TGI [20]: 53 µM
- TGI [21]: 34.7 µM
- TGI [22]: 24.4 µM
- TGI [23]: 19.3 µM
- TGI [24]: > 100 µM
- TGI [25]: 31.6 µM
- TGI [26]: 24 µM
- TGI [27]: 31.2 µM
- TGI [28]: 20.6 µM
- TGI [29]: 7.63 µM
- TGI [30]: 49.1 µM
- TGI [31]: 24.8 µM
- TGI [32]: 29.5 µM
- TGI [33]: 25.7 µM
- TGI [34]: 21.8 µM
- TGI [35]: > 100 µM
- TGI [36]: 26.8 µM
- TGI [37]: 6.98 µM
- TGI [38]: 31.5 µM
- TGI [39]: 24 µM
- TGI [40]: 45.2 µM
- TGI [41]: 46 µM
- TGI [42]: 24.2 µM
- TGI [43]: 30.2 µM
- TGI [44]: 27 µM
- TGI [45]: 9.64 µM
- TGI [46]: 30.4 µM
- TGI [47]: 31.1 µM
- TGI [48]: 23.9 µM
- TGI [49]: > 100 µM

Compound: CCOc1ccc2nc3cc(N=Nc4ccc(N)nc4N)ccc3c(N)c2c1
- TGI [1]: > 34.9 µM
- TGI [50]: > 100 µM
- TGI [2]: > 100 µM
- TGI [3]: 13.5 µM
- TGI [4]: > 100 µM
- TGI [51]: 4.66 µM
- TGI [5]: 61.6 µM
- TGI [6]: 4.99 µM
- TGI [8]: 14 µM
- TGI [52]: 10 µM
- TGI [9]: 41.7 µM
- TGI [53]: 8.71 µM
- TGI [11]: > 78.6 µM
- TGI [12]: > 66.3 µM
- TGI [13]: 34.3 µM
- TGI [14]: 33.9 µM
- TGI [15]: 4.35 µM
- TGI [16]: 28.6 µM
- TGI [17]: 21 µM
- TGI [18]: 12.2 µM
- TGI [19]: 63.4 µM
- TGI [20]: 15.2 µM
- TGI [21]: > 47.9 µM
- TGI [22]: > 100 µM
- TGI [23]: 7.8 µM
- TGI [25]: 3.08 µM
- TGI [26]: 1.93 µM
- TGI [27]: 55.2 µM
- TGI [28]: > 100 µM
- TGI [54]: > 30.3 µM
- TGI [30]: 28.1 µM
- TGI [31]: 2.92 µM
- TGI [32]: 26.8 µM
- TGI [33]: 31.4 µM
- TGI [34]: 51.5 µM
- TGI [35]: 1.67 µM
- TGI [36]: 57.1 µM
- TGI [37]: 10.1 µM
- TGI [38]: 45.3 µM
- TGI [40]: 57.6 µM
- TGI [41]: 59.4 µM
- TGI [42]: 47.2 µM
- TGI [55]: 5.11 µM
- TGI [56]: 33.7 µM
- TGI [43]: 4.11 µM
- TGI [44]: > 69.6 µM
- TGI [45]: 40.1 µM
- TGI [46]: > 100 µM
- TGI [47]: 21.9 µM
- TGI [48]: 6.38 µM
- TGI [49]: 4.83 µM
